Test results reported in patent US11471478B2, “Use of cyclodextrins in diseases and disorders involving phospholipid dysregulation” (priority 2017, dated 2022).
Marks after values point to notes of the source that are not given here.

How the values were obtained:
[1] = target: T1, breast cancer resistance protein (BCRP) (Homo sapiens, UniProt Q9UNQ0); details: cited from earlier work
T1 sequence (Q9UNQ0 1-655): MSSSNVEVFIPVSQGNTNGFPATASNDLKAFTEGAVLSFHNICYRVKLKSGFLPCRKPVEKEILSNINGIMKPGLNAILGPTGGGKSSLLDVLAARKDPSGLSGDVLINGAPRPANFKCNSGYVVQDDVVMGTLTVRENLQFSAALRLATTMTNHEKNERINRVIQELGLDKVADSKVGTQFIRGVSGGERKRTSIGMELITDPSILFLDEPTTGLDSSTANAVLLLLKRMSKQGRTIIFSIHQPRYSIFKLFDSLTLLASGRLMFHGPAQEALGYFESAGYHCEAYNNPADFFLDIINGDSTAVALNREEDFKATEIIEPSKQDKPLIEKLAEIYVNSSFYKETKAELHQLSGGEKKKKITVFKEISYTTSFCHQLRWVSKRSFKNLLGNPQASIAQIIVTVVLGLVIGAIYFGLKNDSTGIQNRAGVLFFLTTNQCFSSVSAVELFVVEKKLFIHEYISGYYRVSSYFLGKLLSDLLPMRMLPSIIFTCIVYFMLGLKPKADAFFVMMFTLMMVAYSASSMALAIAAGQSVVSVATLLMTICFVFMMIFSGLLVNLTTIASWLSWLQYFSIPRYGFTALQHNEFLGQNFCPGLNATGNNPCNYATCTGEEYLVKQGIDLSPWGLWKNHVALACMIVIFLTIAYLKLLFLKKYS

[2] = system: HeLa cells transfected with α-synuclein; details: 20 mM for 1 hr; cited from earlier work
[3] = system: fibroblasts of lysosomal storage diseases; details: about 6 mM α-CD, about 8 mM HP-β-CD; cited from earlier work
[4] = system: BBB; details: cited from earlier work
[5] = system: mice/rats; details: in vivo; cited from earlier work
[6] = system: whole blood; details: cited from earlier work
[7] = system: keratinocytes; details: cited from earlier work
[8] = system: rats; details: rat, in vivo, iv; cited from earlier work
[9] = i.v.; cited from earlier work
[10] = system: SOD1 mice; assay: ALS mice SOD1 G93A, bodyweight; type: in vivo; details: untreated mice began to lose bodyweight after 21 days
Excerpt: (§1) ALS mice SOD1 G93A strain (B6SJL-Tg(SOD1*G93A)1Gur/J strain #002726, 10 wk old, and HTT mice (B6CBA-Tg(HDexon1)62Gpb/33; strain #006494 HTT: R6/2, 8 wk old), were obtained from Jackson Laboratories (Bar Harbor, Me.), housed in standard housing with controlled ambient conditions and provided with water and food at libitum.

[11] = system: MDA-MB-231 breast cancer cells; assay: NSG mice injected with human MDA-MB-231 breast cancer cells; type: in vivo
Method: NSG mice (NOD.Cg-Prkdcscid Il2rgtm1Wjl/SzJ, strain #005557 (10 wk old) were obtained from Jackson Laboratories (Bar Harbor, Me.), housed in isolated quarters, and fed with autoclaved water and food.
An MDA-MB-231 cell line was obtained (ATCC) and kept frozen in liquid nitrogen. Upon start of culture, cells were thawed (1.5 min in 37° C. water) and transferred to DMEM/F-12 supplemented with 5% FBS, 2 mM L-glutamine, 1 mM sodium pyruvate, and 0.02 mM non-essential amino acids. Cells were grown to several millions in 60 mm dishes at 70-80% confluence. Before injection, cells were briefly rinsed twice in PBS followed by Versene (EDTA, Invitrogen) and placed on ice with excess phosphate-buffered saline and phenol red-free matrigel basement membrane extract to a concentration of about 15 mg/mL matrigel. 100 μL cell mixture (20,000 cells or saline only) were injected into the lactiferous duct of the 3rd or 4th mammary glands under brief isofluorane anesthesia. Groups of 15 mice each were injected IP with 800 mg/kg of HP-α-CD, HP-β-CD per week (over four days, Mon, Tue, Thu, Fri), or saline (control) for six weeks. Size of the primary tumor was measured weekly.
Breast tissue were palpated and measured twice a week with a micro-metric analytical device scaled to 1 mm precision. Mice were weighed weekly on a digital scale (0.1 g precision).
At the end of the study period, mice were anaesthetized with isofluorane with 1× phosphate-buffered saline (PBS) and subsequently with 4% formaldehyde in PBS. Tissue from lung and liver were removed and fixated in formalin for microscopic examination. Metastases were visualized and counted by tissue embedding in paraffin and sectioning with immunohistochemistry and histological stain (H&E) and immunostained with anti-HLA antibody. After blocking for 1 h with BSA (5%, frac V), the anti-HLA was incubated at 4° C. overnight, washed for 1 h in PBS, then incubated with biotinylated anti-mouse IgG for 1 h at room temperature. After washing with PBS, metastases were detected on the slide using Envision (Dako).
After blood collection, whole blood samples were centrifuged (at 10,000 m/s^2 for 15 min and then at 100,000 m/s^2 for 10 min), and plasma was isolated. The samples were stored at −80° C. until analysis.
Prior to analysis (30 min), samples and assay reagents were equilibrated to room temperature. The samples were run at a 1:4 dilution and quantified in duplicate using a multi-plex mouse panel for quantification of IL-1β, IL-18, IL-6, IL-8, IL-17A, and GM-CSF (Bio-Plex Pro assays, Bio-Rad Laboratories) on a Luminex Bio-Plex 200 System (Bio-Rad Laboratories).

[12] = system: HTT mice; assay: HTT mice (R6/2), bodyweight; type: in vivo; details: 8 wk old HTT mice, over 5 wk
Excerpt: as §1

[13] = system: erythrocytes; details: read-out: hemolytic IC50; cited from earlier work
[14] = system: SwN2a cells; details: cited from earlier work
[15] = Randomized n-of-1 human PK/PD study: FPLC of morning urine after oral HP-α-CD preparations; details: in vivo
Method: Urine samples (5-10 mL) were pipetted into culture tubes and then frozen for 30 min and samples were then lyophilized for 48-72 h, sealed and stored at −80° C. Phospholipids were extracted from urine samples after reconstitution, with chloroform (CHCl3) and methanol (3:1), and filtered through glass wool. The eluent was washed with 1 M KCl with 0.01% sodium azide. The wash was centrifuged at 3000 g for 30 min and CHCl3 layer transferred to fresh tube and evaporated at 60° C. under nitrogen. Phospholipid extracts and standards were digested in 10 M H2SO4 with 0.16 Ca(NO3)2 and 30% H2O2 and heated for 25 min at 180° C. […] These were vortexed and heated at 35° C. for 30 min. All samples were analyzed in triplicate.
This was coupled to a Beckman Ultra SI column using an isocratic elution profile along a mobile phase of acetonitrile-methanol-phosphoric acid solvent (100:10:1.8) at a flow rate of 1.0 mL/min at RT. The lyophilized samples were resuspended in a hexane-propanol-phenolphthalene mix (3:1:0.1) before injection.
The standard curves (FIG. 43) were generated using DiPalmitoyl-PC in the range of 0.65-32 μM phosphate equivalence. Percentage efficiency of isolation was determined through a comparison of the extraction recovery of total phosphate from normal urine spiked with known amount of synthetic PL with a parallel PL sample digested and assayed without extraction.

[16] = system: MDA-MB 231 and MCF-7 human breast epithelial cell lines; assay: Wound healing / gap closure migration assay; type: cell-based; details: for inhibition of migration, 1 mM HP-α-CD versus 2 mM HP-β-CD: MDA-MB-231 and MCF-7
Method: Published results have shown that β-CD inhibits human MDA-MB 231 cell migration (Guerra F S, Sampaio LdS, et al. (2016) Translational Medicine Communications 1:3). This inhibition was attributed to the ability of β-CD to “deplete cholesterol”. β-CD, however, depletes also phospholipids. […] Cells were cultured in 24-well culture plates (Cytoselect CBA-120, 0.9 mm wound healing/gap closure migration assay) for 24 h with wound healing insert in place. Cells were then treated for 2 h with HP-β-CD, HP-α-CD, or control. Protocol: Warm up the 24-well plate (CBA-120, Cell BioLabs Inc.) with 0.9 mm CytoSelect Wound Healing Inserts at room temperature for 10 min. Using sterile forceps, orient the desired number of inserts in the plate wells with their “wound field” aligned in the same direction. […] Add 500 μL of cell suspension to each well by carefully inserting the pipette tip through the open end at the top of the insert. For optimal cell dispersion, add 250 μL of cell suspension to either side of the open ends at the top of the insert. Incubate cells in a cell culture incubator for 12-24 hours. Carefully remove the insert from the well to begin the wound healing assay. Use sterile forceps to grab and lift the insert slowly from the plate well. Slowly aspirate and discard the media from the wells. Wash wells with media to remove dead cells and debris. Finally, add media to wells to keep cells hydrated. Repeat wash if wells still have debris or unattached cells. When washing is complete, add media with FBS and/or compounds to continue cell culture and wound healing process. Agents that inhibit or stimulate cell migration can be added directly to the wells. Incubate cells in a cell culture incubator (2 hours) and then wash cells with PBS and then add fresh media without compounds. Incubate 12-24 hours before wash and fixing. Remove the fixation solution and add 400 μL of Cell Stain Solution to each well. Allow the stain to incubate with the cells for 15 minutes at room temperature. Aspirate and discard the solution. Carefully wash each stained well 3× with deionized water. Discard washes and allow cells to dry at room temperature. Cells that migrated into the wounded area or protruded from the border of the wound were visualized and photographed under an inverted microscope. Determine the surface area of the defined wound area: Total Surface Area=0.9 mm×length. Determine the surface area of the migrated cells into the wound area: Migrated Cell Surface Area=length of cell migration (mm)×2× length. Percent Closure (%)=Migrated Cell Surface Area/Total Surface Area×100 (see FIG. 36)

[17] = system: heterogeneous human epithelial colorectal adenocarcinoma (Caco-2) cells; details: cited from earlier work
[18] = system: Npc1−/− mice; details: mouse, in vivo; cited from earlier work
[19] = IP 800 mg/kg per week for six weeks
[20] = u-statistics for multivariate data

Molecule: methyl-β-cyclodextrin [M-β-CD]
- decrease in activity of BCRP [1]: 40%
- co-location of α-synuclein with the cell membrane [2]: dramatically reduced
- reduction of lysosomal storage [3]: most effective cyclodextrin

Molecule: CN1CCCC1c1cccnc1 (stereo not shown) [nicotine]
- transported through the BBB ([4]; after 2 h of incubation, in vitro): 96%

Molecule: OC[C@H]1O[C@@H]2O[C@H]3[C@H](O)[C@@H](O)[C@@H](O[C@H]4[C@H](O)[C@@H](O)[C@@H](O[C@H]5[C@H](O)[C@@H](O)[C@@H](O[C@H]6[C@H](O)[C@@H](O)[C@@H](O[C@H]7[C@H](O)[C@@H](O)[C@@H](O[C@H]8[C@H](O)[C@@H](O)[C@@H](O[C@H]1[C@H](O)[C@H]2O)O[C@@H]8CO)O[C@@H]7CO)O[C@@H]6CO)O[C@@H]5CO)O[C@@H]4CO)O[C@@H]3CO [β-CD, beta-cyclodextrin, reference compound]
- LD50 i.v./i.p. in mice/rats [5]: 0.8/1.0 ^4) g/kg
- whole blood TD50 [6]: 3.6 mM/L
- caspase-dependent apoptotic cell death [7]: induces caspase-dependent apoptotic cell death
- i.v. toxicity, 1 g/kg daily [8]: all died ≤ 4 d
- Transport across BBB ([4]; 2 h, 1 mM): 26.7 (1 mM) %
- toxicity on the BBB model [4]: similarly safe
- half-life (t1/2) after i.v. in rats [9]: 20 min

Molecule: 2-hydroxypropyl-alpha-cyclodextrin [HP-α-CD]
- bodyweight growth [10]: continued to grow for at least two more weeks
- Tumor volume, median [11, 19]: 356 mm3
- effect on tumor volume [11, 19]: more effective than HP-β-CD
- plasma cytokines (IL-1β, IL-18, IL-6, IL-8, IL-17A, GM-CSF) versus Vehicle ([11]; conventional 0.05 level): not significant only in IL-6
- mice that did not develop lung metastases ([11]; groups of 15 mice): 5 mice
- mice who died ([11]; groups of 15 mice): one
- comprehensive analysis of all six plasma cytokine markers [11, 20]: more effective than HP-β-CD
- lung and liver metastases overall [11, 20]: more effective
- decline in bodyweight [12]: reduced decline in bodyweight
- IC50 [13]: > 100 mM
- level of membrane cholesterol [14]: reduced
- levels of Aβ42 [14]: dramatically lowered
- whole blood TD50 [6]: 360 mM/L
- lysophospholipids in urine (fractions 9 and 10, LPC) [15]: higher than in all other groups
- cell migration / wound closure, concentration dependence ([16]; 2 h treatment, MDA-MB 231 and MCF-7): migration decreased with higher concentration
- effect on migration, HP-α-CD versus HP-β-CD ([16]; MDA-MB 231 and MCF-7): stronger effect on migration than HP-β-CD
- effect on migration, HP-α-CD versus HP-β-CD ([16]; MDA-MB 231 and MCF-7, listed as HPαCD): twice as effective as HP-β-CD
- inhibition of migration, 1 mM HP-α-CD versus 2 mM HP-β-CD [16]: superior to inhibition at 2 mM HP-β-CD
- inhibition of migration, 1 mM HP-α-CD versus 2 mM HP-β-CD ([16]; listed as HPαCD): more effective than 2 mM HPβCD
- cytotoxicity [17]: less cytotoxic than α-CD
- cholesterol accumulation [18]: reduces cholesterol accumulation, albeit not as effectively as HP-β-CD
- BBB breakdown [4]: 2.5 mM
- toxicity on the BBB model [4]: similarly safe
